Source: patent publication US20180338980A1, “AROMATIC SULFONAMIDE DERIVATIVES” (BAYER PHARMA AKTIENGESELLSCHAFT, priority 2015, published 2018)
Entries after “also recorded” stand apart in the source; their conditions may differ.

What was measured:
[1] = target: T1, P2X4 (Homo sapiens, UniProt Q99571); assay: Assay A: human P2X4 receptor cell line, FLIPR calcium assay (Fluo-8, agonist Bz-ATP at EC80); type: cell-based; design: host or cells: HEK 293 (recombinant, constitutively expressing; with mitochondrial photina in Assay B); details: HEK human P2X4 cells, Fluo-8 FLIPR; for IC50: Bz-ATP at EC80, average values; for Emax: percentage of maximal inhibition, read-out: human P2X4 Assay A avg Efficacy
T1 sequence (Q99571 1-388): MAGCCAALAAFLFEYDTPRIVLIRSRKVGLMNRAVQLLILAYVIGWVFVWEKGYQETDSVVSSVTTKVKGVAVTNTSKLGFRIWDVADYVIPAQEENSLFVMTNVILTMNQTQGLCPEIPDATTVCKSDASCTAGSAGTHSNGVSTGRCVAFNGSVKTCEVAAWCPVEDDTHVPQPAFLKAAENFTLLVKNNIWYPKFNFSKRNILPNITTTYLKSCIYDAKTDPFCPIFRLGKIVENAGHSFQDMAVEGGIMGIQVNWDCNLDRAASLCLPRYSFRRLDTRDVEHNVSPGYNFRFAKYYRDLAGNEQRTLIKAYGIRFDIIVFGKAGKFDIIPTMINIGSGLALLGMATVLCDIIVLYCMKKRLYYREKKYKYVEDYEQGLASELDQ
Procedure, shortened: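 Antagonism read as inhibition of the calcium response to EC80 Bz-ATP, by peak-over-basal Fluo-8 fluorescence over 120 s, normalized to DMSO wells. Human P2X4-HEK cells, dye-loaded 30 min in probenecid-containing HBSS/HEPES pH 7.4, received compound 30 min beforehand at room temperature, 0.5% DMSO final. Triplicates fitted for IC50, maximal inhibition and Hill slope.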

[2] = target: T1, P2X4; assay: Assay B: human P2X4 receptor cell line, mitochondrial photina luminescence (agonist Bz-ATP at EC50); type: cell-based; design: host or cells: HEK 293 (recombinant, constitutively expressing; with mitochondrial photina in Assay B); details: HEK human P2X4 cell line, photina luminescence, agonist Bz-ATP at EC50, average; for Emax: read-out: human P2X4 Assay B avg Efficacy
Procedure, shortened: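 Bz-ATP at its EC50 activates human P2X4 stably expressed in a cell line that also carries the calcium-sensitive photoprotein mitochondrial photina (coelenterazine cofactor). Light emitted on calcium influx is measured straight away in a luminometer. Reduced luminescence indicates antagonism.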

[3] = target: T1, P2X4; assay: Human whole blood assay (human WBA): IL-13 production after LPS priming and ATP stimulation; type: cell-based; design: from tissue; host or cells: human whole blood of healthy female volunteers; details: IL-13 in human whole blood, LPS 100 ng/ml 2 h then ATP 3 mM 1 h; total concentration
Protocol: Human whole blood assay (human WBA) was prepared from the blood of healthy female volunteers. In this assay, the efficacy of P2X4 antagonists on the production of IL-13 in whole blood after ATP stimulation (3 mM for 1 h) following priming of the cells with lipopolysacaride (LPS, 100 ng/ml for 2 h) was evaluated. After incubation, supernatant was taken following centrifugation and the formation of IL-13 was assayed using standard ELISA kits. IC50 values were calculated using GraphPad PRISM program with nonlinear regression curve fit. Data are presented as total concentration.

[4] = target: T2, mouse P2X4 receptors (Mus musculus, UniProt Q9JJX6); assay: Assay B: mouse P2X4 receptor cell line, Fluo8 fluorescence FLIPR (agonist Bz-ATP at EC50); type: cell-based; details: HEK mouse P2X4 cell line, agonist Bz-ATP at EC50, average
T2 construct: host or cells: HEK 293 (recombinant, constitutively expressing)
T2 sequence (Q9JJX6 1-388): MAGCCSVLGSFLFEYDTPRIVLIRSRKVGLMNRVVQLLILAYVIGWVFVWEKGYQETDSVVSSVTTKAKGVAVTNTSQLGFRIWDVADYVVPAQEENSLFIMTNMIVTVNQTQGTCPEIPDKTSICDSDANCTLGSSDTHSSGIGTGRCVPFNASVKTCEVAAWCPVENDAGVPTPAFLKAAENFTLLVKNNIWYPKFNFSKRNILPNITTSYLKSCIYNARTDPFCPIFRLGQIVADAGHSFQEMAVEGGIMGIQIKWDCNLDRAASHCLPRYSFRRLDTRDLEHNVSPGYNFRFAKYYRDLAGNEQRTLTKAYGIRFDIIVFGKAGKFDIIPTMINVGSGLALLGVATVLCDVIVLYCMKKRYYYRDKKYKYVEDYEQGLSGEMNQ
Protocol: The identification of agonists and antagonists of the P2X4 receptor from humans and […] also the quantification of the activity of the compounds of the invention was performed by use of recombinant cell lines. […] The test cell lines constitutively express the mouse or human P2X4 receptors. Stimulation of the receptors with an agonist leads to a conformational change of P2X4 and influx of extracellular calcium ions through the ion channel. The cytoplasmatic calcium transient is detected via the calcium sensitive dye Fluo8 for the mouse P2×4 cell line or in case of the human P2×4 cell line a stably expressed calcium-sensitive photoprotein, mitochondrial photina, which, after reconstitution with the cofactor coelenterazine, emits light in dependence of calcium binding [Bovolenta S, Foti M, Lohmer S, Corazza S., J Biomol Screen. […] The strength of Fluo8 fluorescence signal or photina luminescence signal corresponds to the level of receptor activation. An inhibitor would decrease the signal depending on its potency and concentration.
On the day of the assay medium is exchanged by Fluo8 containing buffer for 30 minutes. In the fluorescence reader (FLIPR) test substances in various concentrations are added for 10 minutes. After baseline measurement the agonist Bz-ATP at EC50 concentration is applied and fluorescence is measured immediately.

[5] = test system: c57bl/6 mice; assay: CFA inflammation model with pain read out (dynamic weight bearing); type: in vivo, mouse; details: 50 mg/kg oral on day 1 and day 2 post-CFA, 24-48 h after CFA
Protocol: Wild type female c57bl/6 mice (Taconic) received intraplantar injection of complete Freund's adjuvant (CFA) (30 μl, 1 mg/ml, Sigma) into the left hind paw under isoflurane anesthesia. […] Spontaneous pain-related behavior in freely moving animals was assessed using the automated dynamic weight bearing device (DWB, Bioseb, France) according to published and validated protocols (Robinson et al., 2012; Tetreault et al., 2011; Gruen et al. 2014). For behavioral testing, the animal was placed inside a Plexiglas chamber and allowed to move freely within the apparatus for a 5 min period, subsequently pain behavior is recorded for a test period of another 5 min.
(§1) Statistical analysis is performed with one-way analysis of variance, followed by Bonferroni's multiple comparison test vs. vehicle controls using the GraphPad PRISM software, *p<0.05, **p<0.01.

[6] = test system: PGE2 levels; assay: PGE2 levels after CFA-induced inflammation in mice (hind paw tissue, ELISA); type: in vivo, mouse; details: single oral dose 12.5, 25, 50 mg/kg, 48 h after CFA, 1 h after dose
Protocol: Female c57bl/6 mice (Taconic) received intraplantar injection of complete Freund's adjuvant (CFA) (30 μl, 1 mg/ml, Sigma) into the left hind paw under isoflurane anesthesia. […] At termination of the experiments (48 h after CFA, 1 h after dose), hind paw tissue is collected for analysis of PGE2 levels (ELISA, Cayman Chemical item no. 514531).
as §1

| IC50 [1] [nM] | Emax [1] [%] | IC50 [2] [nM] | Emax [2] [%] | IC50 [3] [nM] | IC50 [4] [nM] | mouse P2X4 Assay B avg Efficacy [4] [%] | Compound | spontaneous pain behavior assessed by DWB after CFA-induced inflammation [5] | PGE2 levels in inflamed hind paw after CFA injection [6] |
| --- | --- | --- | --- | --- | --- | --- | --- | --- | --- |
| 58 | 71 | 25 | 80 | 2540 | 149 | 45 | N#Cc1cccc(Oc2ccc(NC(=O)Cc3ccccc3Cl)cc2S(N)(=O)=O)c1 [Example 015, 2-(2-Chlorophenyl)-N-[4-(3-cyanophenoxy)-3-sulfamoylphenyl]acetamide] |  |  |
|  |  |  |  |  |  | 51 | NS(=O)(=O)c1cc(NC(=O)Cc2ccccc2)ccc1Oc1cccc(Cl)c1 [Example 244, N-[4-(3-Chlorophenoxy)-3-sulfamoylphenyl]-2-phenylacetamide] | significantly reduced spontaneous pain behavior | dose-dependently reduced PGE2 levels; also recorded: still in the range of PGE2 levels of PBS treated animals |
| 106 | 81 | 68 | 79 |  | > 50000 | 15 | NS(=O)(=O)c1cc(NC(=O)Cc2ccccc2Cl)ccc1Oc1cnc(Cl)c(Cl)c1 [Example 036, 2-(2-Chlorophenyl)-N-{4-[(5,6-dichloropyridin-3-yl)oxy]-3-sulfamoylphenyl}acetamide] |  |  |
| 472 | 63 | 78 | 56 | 30000 |  |  | COc1ccc(CC(=O)Nc2ccc(Oc3ccc(Cl)cc3)c(S(N)(=O)=O)c2)cc1 [Example 229, N-[4-(4-Chlorophenoxy)-3-sulfamoylphenyl]-2-(4-methoxyphenyl)acetamide] |  |  |
